Experimental data as given in US12054498B2, “Heteroaromatic macrocyclic ether chemotherapeutic agents” (Nuvalent, Inc., priority 2020, dated 2024).

Legend:
Ba/F3 cells TPM3-TRKA = target: T1, Ba/F3 cells TPM3-TRKA (Homo sapiens, UniProt P04629); test: Ba/F3 cell proliferation assay, TPM3-TRKA; format: cell-based; conditions: 72 hours, CellTiter-Glo, read-out: TPM3-NTRK1-wt IC50
T1 construct: host or cells: Ba/F3 (RIKEN), retroviral pMSCV-puro; the other entry of the earlier key: TPM3 (P06753, Tropomyosin alpha-3 chain)
T1 sequence (P04629 510-796 limits assumed): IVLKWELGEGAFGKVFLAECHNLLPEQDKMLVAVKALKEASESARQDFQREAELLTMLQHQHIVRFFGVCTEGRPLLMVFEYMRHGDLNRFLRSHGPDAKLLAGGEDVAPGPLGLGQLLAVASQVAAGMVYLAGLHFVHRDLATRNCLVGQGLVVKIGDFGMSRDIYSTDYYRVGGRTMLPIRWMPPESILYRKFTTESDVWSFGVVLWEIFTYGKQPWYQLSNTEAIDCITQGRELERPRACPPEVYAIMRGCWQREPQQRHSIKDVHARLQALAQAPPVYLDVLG
Summary of the method: (§1)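 IC50 values come from four-parameter logistic regression of CellTiter-Glo luminescence after 72 h exposure to 3-fold serial dilutions. Cells are Ba/F3 transformed by retroviral fusion-kinase constructs, grown without IL-3 under puromycin, plated at 1,000 per well a day before dosing.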

[1] = target: T2, Ba/F3 cells EML4-ALK L1196M/G1202R (variant 1) (Homo sapiens, UniProt Q9UM73, G1202R/L1196M); test: Ba/F3 cell proliferation assay, EML4-ALK L1196M/G1202R (variant 1); format: cell-based; conditions: 72 hours, CellTiter-Glo
T2 construct: echinoderm microtubule-associated protein-like 4 (EML4) gene and the ALK tyrosine kinase domain; host or cells: Ba/F3 (RIKEN), retroviral pMSCV-puro; the other entry of the earlier key: EML4 (Q9HC35, Echinoderm microtubule-associated protein-like 4)
T2 sequence (Q9UM73 with tags, fused parts or gaps L1196M/G1202R): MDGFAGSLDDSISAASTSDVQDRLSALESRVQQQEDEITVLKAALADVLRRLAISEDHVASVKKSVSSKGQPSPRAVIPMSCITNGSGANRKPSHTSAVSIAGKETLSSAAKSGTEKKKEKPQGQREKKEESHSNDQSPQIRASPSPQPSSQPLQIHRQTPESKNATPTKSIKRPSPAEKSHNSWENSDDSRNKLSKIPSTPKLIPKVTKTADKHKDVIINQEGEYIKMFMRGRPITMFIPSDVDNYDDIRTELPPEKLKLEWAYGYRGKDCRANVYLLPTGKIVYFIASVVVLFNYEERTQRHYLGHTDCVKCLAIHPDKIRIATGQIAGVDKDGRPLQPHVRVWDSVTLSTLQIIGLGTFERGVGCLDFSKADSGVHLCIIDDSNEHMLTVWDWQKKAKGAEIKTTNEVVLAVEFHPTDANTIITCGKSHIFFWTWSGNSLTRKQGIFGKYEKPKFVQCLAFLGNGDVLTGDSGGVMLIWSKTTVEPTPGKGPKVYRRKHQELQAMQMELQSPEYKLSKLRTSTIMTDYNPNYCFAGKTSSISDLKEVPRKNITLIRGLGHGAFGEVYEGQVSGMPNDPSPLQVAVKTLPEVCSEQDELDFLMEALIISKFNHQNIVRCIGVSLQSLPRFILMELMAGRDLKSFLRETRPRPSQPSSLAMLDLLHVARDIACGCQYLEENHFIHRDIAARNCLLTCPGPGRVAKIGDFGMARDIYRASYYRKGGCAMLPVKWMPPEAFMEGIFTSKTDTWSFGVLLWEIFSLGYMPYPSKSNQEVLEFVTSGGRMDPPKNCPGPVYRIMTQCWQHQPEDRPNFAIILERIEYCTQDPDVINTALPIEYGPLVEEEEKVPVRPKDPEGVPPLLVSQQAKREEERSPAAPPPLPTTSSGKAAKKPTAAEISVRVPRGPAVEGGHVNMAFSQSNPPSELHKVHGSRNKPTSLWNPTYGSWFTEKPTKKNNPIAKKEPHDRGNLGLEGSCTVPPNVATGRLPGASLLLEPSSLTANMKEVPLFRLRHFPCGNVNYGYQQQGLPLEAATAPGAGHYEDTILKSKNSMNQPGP
Summary of the method: as §1

TRKA-wt = target: T3, TRKA-wt (Homo sapiens, UniProt P04629); test: Biochemical kinase assay, TRKA-wt kinase domain; conditions: apparent inhibitory constant, Morrison equation; ATP 2 mM in substrate solution; read-out: TRKA-wt Ki^app
T3 construct: or TRKA-wt (1 nM, BPS Bio, 40280) kinase domains in buffer; purchased BPS Bio 40280
T3 sequence (P04629 510-781 limits assumed): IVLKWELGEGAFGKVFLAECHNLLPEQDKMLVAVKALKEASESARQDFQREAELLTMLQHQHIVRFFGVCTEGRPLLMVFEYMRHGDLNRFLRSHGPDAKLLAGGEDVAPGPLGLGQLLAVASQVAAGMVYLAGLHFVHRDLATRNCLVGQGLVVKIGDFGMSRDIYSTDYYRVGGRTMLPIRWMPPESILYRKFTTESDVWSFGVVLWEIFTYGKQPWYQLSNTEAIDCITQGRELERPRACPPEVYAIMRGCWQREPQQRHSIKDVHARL
Summary of the method: (§2)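 Continuous fluorescence read (λ=485 nm, every 2 min, 120 min, 30° C). Substrate solution held 2 mM ATP and 26 μM AQT0101 (ROS1/ALK) or AQT0104 (TRKA). Kinase solution: ROS1-G2032R 0.5 nM, ROS1-wt 0.6 nM, TRKA 1 nM, ALK double mutant 3 nM. Initial linear rates fed a Morrison-equation fit giving Ki^app.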

ROS1-wt = target: T4, ROS1-wt (Homo sapiens, UniProt P08922); test: Biochemical kinase assay, ROS1-wt kinase domain; conditions: apparent inhibitory constant, Morrison equation; ATP 2 mM in substrate solution; read-out: ROS1-wt Ki^app
T4 construct: purchased Carna 08-163
T4 sequence (P08922 1945-2222 limits assumed): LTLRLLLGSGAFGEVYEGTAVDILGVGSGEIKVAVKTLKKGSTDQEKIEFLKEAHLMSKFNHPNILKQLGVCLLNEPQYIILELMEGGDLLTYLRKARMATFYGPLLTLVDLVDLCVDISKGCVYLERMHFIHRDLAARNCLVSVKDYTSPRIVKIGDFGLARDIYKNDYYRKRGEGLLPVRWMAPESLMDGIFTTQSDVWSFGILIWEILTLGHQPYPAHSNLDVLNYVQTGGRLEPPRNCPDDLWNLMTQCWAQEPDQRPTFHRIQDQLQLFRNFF
Summary of the method: (§3)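 Kinetic read: 485 nm, 2-min intervals, 120 min, 30 °C. Substrate mix — ATP 2 mM, AQT0101 26 μM, HEPES 50 mM pH 7.5, MgCl2 10 mM. Output: Ki^app, Morrison equation.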

[2] = tested on: TPM3-NTRK1-wt IC50 / primary target IC50 (e.g. CD74-ROS1-wt); test: TRKA selectivity in Ba/F3 cells (TRKA potency divided by primary target potency); format: cell-based; conditions: for TPM3-NTRK1-wt/CD74-ROS1-G2032R selectivity ratio: TRKA potency / CD74-ROS1-G2032R potency; for TPM3-NTRK1-wt/CD74-ROS1-wt selectivity ratio: TRKA potency / CD74-ROS1-wt potency; for TPM3-NTRK1-wt/EML4-ALK-L1196M-G1202R selectivity ratio: TRKA potency / EML4-ALK-L1196M-G1202R potency; for TPM3-NTRK1-wt/EML4-ALK-wt selectivity ratio: TRKA potency / EML4-ALK-wt potency
Experimental: TRKA selectivity was calculated by dividing a compound's TRKA potency by its primary target potency (e.g. TPM3-NTRK1-wt IC50/CD74-ROS1-wt IC50). Compound selectivity can be interpreted by binning ratio values: bin A for very high selectivity, ratio >30-fold; bin B for high selectivity, ratio >10-fold; bin C for moderate selectivity, ratio ≥1; and bin D for low selectivity, ratio <1. […] (nd=not determined).

ALK L1196M/G1202R = target: T5, ALK L1196M/G1202R (Homo sapiens, UniProt Q9UM73, G1202R/L1196M); test: Biochemical kinase assay, ALK L1196M/G1202R kinase domain; conditions: apparent inhibitory constant, Morrison equation; ATP 2 mM in substrate solution; read-out: ALK-L1196M-G1202R Ki^app
T5 construct: purchased SignalChem A19-12NG
T5 sequence (Q9UM73 1116-1392 L1196M/G1202R limits assumed): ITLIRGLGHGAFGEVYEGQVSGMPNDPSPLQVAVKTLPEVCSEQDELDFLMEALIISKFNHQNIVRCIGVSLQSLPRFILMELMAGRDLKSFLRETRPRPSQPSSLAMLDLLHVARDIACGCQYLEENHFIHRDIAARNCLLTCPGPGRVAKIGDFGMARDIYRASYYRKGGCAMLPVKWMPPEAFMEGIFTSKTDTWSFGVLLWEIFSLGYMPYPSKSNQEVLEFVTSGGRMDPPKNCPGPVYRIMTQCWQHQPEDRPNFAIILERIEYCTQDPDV
Summary of the method: as §2

ROS1-G2032R = target: T6, ROS1-G2032R (Homo sapiens, UniProt P08922, G2032R); test: Biochemical kinase assay, ROS1-G2032R kinase domain; conditions: apparent inhibitory constant, Morrison equation; ATP 2 mM in substrate solution; read-out: ROS1-G2032R Ki^app
T6 construct: purchased SignalChem R14-12BG
T6 sequence (P08922 1945-2222 G2032R limits assumed): as the sequence (P08922 1945-2222 limits assumed) above, with G88R counted along it
Summary of the method: as §3

ALK-wt = target: T7, ALK-wt (Homo sapiens, UniProt Q9UM73); test: Biochemical kinase assay, ALK-wt kinase domain; conditions: apparent inhibitory constant, Morrison equation; ATP 2 mM in substrate solution; read-out: ALK-wt Ki^app
T7 construct: purchased Carna 08-518
T7 sequence (Q9UM73 1116-1392 limits assumed): as the sequence (Q9UM73 1116-1392 L1196M/G1202R limits assumed) above, with M81L, R87G counted along it
Summary of the method: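 Compound in DMSO added first, then substrate solution (ATP 2 mM; AQT0101 or AQT0104, 26 μM; pH 7.5 HEPES, 10 mM MgCl2), then kinase solution with enzyme at 0.5–3 nM depending on construct. Kinetic read every 2 min for 120 min at 30° C; Ki^app by Morrison regression.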

[3] = target: T8, Ba/F3 cells CD74-ROS1 wild-type (wt) (Homo sapiens, UniProt P08922); test: Ba/F3 cell proliferation assay, CD74-ROS1 wild-type; format: cell-based; conditions: 72 hours, CellTiter-Glo
T8 construct: fusion of the C-terminus of ROS1 with the N-terminus of various partner proteins; host or cells: Ba/F3 (RIKEN), retroviral pMSCV-puro; the other entry of the earlier key: CD74 (P04233, HLA class II histocompatibility antigen gamma chain)
T8 sequence (P08922 1883-2347 limits assumed): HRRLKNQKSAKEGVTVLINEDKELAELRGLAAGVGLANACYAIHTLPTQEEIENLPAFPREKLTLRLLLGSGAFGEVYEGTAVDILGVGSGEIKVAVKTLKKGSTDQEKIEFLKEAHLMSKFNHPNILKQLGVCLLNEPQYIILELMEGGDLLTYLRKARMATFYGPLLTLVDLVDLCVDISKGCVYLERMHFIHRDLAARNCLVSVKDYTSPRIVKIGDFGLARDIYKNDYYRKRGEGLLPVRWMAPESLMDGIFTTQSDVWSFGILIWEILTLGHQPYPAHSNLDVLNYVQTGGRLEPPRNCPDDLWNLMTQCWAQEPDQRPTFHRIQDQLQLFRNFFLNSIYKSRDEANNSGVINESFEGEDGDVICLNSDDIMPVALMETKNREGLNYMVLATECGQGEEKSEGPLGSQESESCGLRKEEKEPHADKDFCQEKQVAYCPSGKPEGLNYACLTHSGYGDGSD
Summary of the method: (§4)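 First, retrovirally infected Ba/F3 cells were made IL-3-independent and selected with puromycin (0.8 μg/mL). Next, cells were plated and rested one day. Then compounds in 3-fold dilutions were added for 72 hours before CellTiter-Glo readout.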

[4] = target: T9, Ba/F3 cells CD74-ROS1 G2032R (Homo sapiens, UniProt P08922, G2032R); test: Ba/F3 cell proliferation assay, CD74-ROS1 G2032R; format: cell-based; conditions: 72 hours, CellTiter-Glo
T9 construct: fusion of the C-terminus of ROS1 with the N-terminus of various partner proteins; host or cells: Ba/F3 (RIKEN), retroviral pMSCV-puro; the other entry of the earlier key: CD74 (P04233, HLA class II histocompatibility antigen gamma chain)
T9 sequence (P08922 1883-2347 G2032R limits assumed): as the sequence (P08922 1883-2347 limits assumed) above, with G150R counted along it
Summary of the method: as §4

[5] = target: T10, Ba/F3 cells EML4-ALK wt (variant 1) (Homo sapiens, UniProt Q9UM73); test: Ba/F3 cell proliferation assay, EML4-ALK wt (variant 1); format: cell-based; conditions: 72 hours, CellTiter-Glo
T10 construct: echinoderm microtubule-associated protein-like 4 (EML4) gene and the ALK tyrosine kinase domain; host or cells: Ba/F3 (RIKEN), retroviral pMSCV-puro; the other entry of the earlier key: EML4 (Q9HC35, Echinoderm microtubule-associated protein-like 4)
T10 sequence (Q9UM73 with tags, fused parts or gaps): as the sequence (Q9UM73 with tags, fused parts or gaps L1196M/G1202R) above, with M635L, R641G counted along it
Summary of the method: as §1

Row | IC50 (Ba/F3 cells TPM3-TRKA) [nM] | IC50 [1] [nM] | Ki (TRKA-wt) [nM] | Ki (ROS1-wt) [nM] | Ki (ALK L1196M/G1202R) [nM] | Ki (ROS1-G2032R) [nM] | Ki (ALK-wt) [nM] | IC50 [3] [nM] | IC50 [4] [nM] | IC50 [5] [nM] | SMILES | TPM3-NTRK1-wt/CD74-ROS1-G2032R selectivity ratio [2] | TPM3-NTRK1-wt/CD74-ROS1-wt selectivity ratio [2] | TPM3-NTRK1-wt/EML4-ALK-L1196M-G1202R selectivity ratio [2] | TPM3-NTRK1-wt/EML4-ALK-wt selectivity ratio [2]
1 | 50 to 500 | 0.1 to 50 | 50 to 500 | < 50 | < 50 | < 50 | < 50 | 0.1 to 50 | 0.1 to 50 | 0.1 to 50 | C[C@H]1Oc2cc(cnc2N)-c2c(cnn2CC2CC2)Cc2ncc(F)cc2-c2ccc(F)cc21 [Example 72, (20R)-3-(cyclopropylmethyl)-11,17-difluoro-20-methyl-21-oxa-3,4,9,24-tetraazapentacyclo[20.3.1.0^2,^6.0^8,^13.0^14,^19]hexacosa-1(25),2(6),4,8(13),9,11,14,16,18,22(26),23-undecaen-23-amine] | A (bin A for very high selectivity, ratio >30-fold) | A (bin A for very high selectivity, ratio >30-fold) | A (bin A for very high selectivity, ratio >30-fold) | A (bin A for very high selectivity, ratio >30-fold)
2 | 50 to 500 | 50 to 500 | 50 to 500 | < 50 | < 50 | < 50 | < 50 | 0.1 to 50 | 0.1 to 50 | 0.1 to 50 | C[C@H]1Oc2cc(cnc2N)-c2c(cnn2CC(F)F)Cc2ncc(F)cc2-c2ccc(F)cc21 [Example 73, (20R)-3-(2,2difluoroethyl)-11,17-difluoro-20-methyl-21-oxa-3,4.9,24-tetraazapentacyclo[20.3.1.0^2,^6.0^8,^13.0^13,^19]hexacosa-1(25),2(6),4,8(13),9,11,14,16,18,22(26),23-undecaen-23-amine] | A (bin A for very high selectivity, ratio >30-fold) | A (bin A for very high selectivity, ratio >30-fold) | C (bin C for moderate selectivity, ratio ≥1) | A (bin A for very high selectivity, ratio >30-fold)

Further lines, the compound ahead of its results:

Row | SMILES | IC50 (Ba/F3 cells TPM3-TRKA) [nM] | IC50 [1] [nM] | Ki (TRKA-wt) [nM] | Ki (ROS1-wt) [nM] | Ki (ALK L1196M/G1202R) [nM] | Ki (ROS1-G2032R) [nM] | Ki (ALK-wt) [nM] | IC50 [3] [nM] | IC50 [4] [nM] | IC50 [5] [nM] | TPM3-NTRK1-wt/CD74-ROS1-G2032R selectivity ratio [2] | TPM3-NTRK1-wt/CD74-ROS1-wt selectivity ratio [2] | TPM3-NTRK1-wt/EML4-ALK-L1196M-G1202R selectivity ratio [2] | TPM3-NTRK1-wt/EML4-ALK-wt selectivity ratio [2]
3 | C[C@H]1Oc2cc(cnc2N)-c2c(cnn2CC2CC2)Cn2ncnc2-c2ccc(F)cc21 [Example 70, (19R)-3-(cyclopropylmethyl)-16-fluoro-19-methyl-20-oxa-3,4,8,9,11,23-hexaazapentacyclo[19.3.1.0^2,^6.0^8,^12.0^13,^18]pentacosa-1(24),2(6),4,9,11,13,15,17,21(25),22-decaen-22-amine] | > 500 | 50 to 500 | > 500 | < 50 | < 50 | < 50 | < 50 | 0.1 to 50 | 0.1 to 50 | 0.1 to 50 | A (bin A for very high selectivity, ratio >30-fold) | A (bin A for very high selectivity, ratio >30-fold) | A (bin A for very high selectivity, ratio >30-fold) | A (bin A for very high selectivity, ratio >30-fold)
4 | Cc1nn(CC2CC2)c2c1Cc1nn(C)nc1-c1ccc(F)cc1COc1cc-2cnc1N [Example 71, 3-(cyclopropylmethyl)-16-fluoro-5,10-dimethyl-20-oxa-3,4,9,10,11,23-hexaazapentacyclo[19.3.1.0^2,^6.0^8,^12.0^13,^18]pentacosa-1(24),2(6),4,8,11,13,15,17,21(25),22-decaen-22-amine] | > 500 | 50 to 500 | > 500 | < 50 | < 50 | 50 to 500 | < 50 | 0.1 to 50 | 0.1 to 50 | 50 to 500 | A (bin A for very high selectivity, ratio >30-fold) | A (bin A for very high selectivity, ratio >30-fold) | B (bin B for high selectivity, ratio >10-fold) | A (bin A for very high selectivity, ratio >30-fold)
5 | C[C@H]1Oc2cc(cnc2N)-c2c(cnn2CC2CC2)Cn2nc(Cl)cc2-c2ccc(F)cc21 [Example 74, (19R)-10-chloro-3-(cyclopropylmethyl)-16-fluoro-19-methyl-20-oxa-3,4,8,9,23-pentaazapentacyclo[19.3.1.0^2,^6.0^8,^12.0^13,^18]pentacosa-1(24),2(6),4,9,11,13,15,17,21 (25),22-decaen-22-amine] | 50 to 500 | 0.1 to 50 | 50 to 500 | < 50 | < 50 | < 50 | < 50 | 0.1 to 50 | 0.1 to 50 | 0.1 to 50 | A (bin A for very high selectivity, ratio >30-fold) | A (bin A for very high selectivity, ratio >30-fold) | B (bin B for high selectivity, ratio >10-fold) | A (bin A for very high selectivity, ratio >30-fold)
